Reference: patent publication US9321795B2, “Use of hydroxycinnamaldehyde glycoside derivatives for treating glomerulonephritis” (National Defense Medical Center, priority 2014, dated 2016)

Experiments:
[1] = tested on: LPS induced mouse GN model; experiment: Urine protein and serum BUN (renal function) in LPS induced mouse GN model; format: in vivo; conditions: LPS induced GN C57BL/6 mice
Method: (§1) Experiments were performed on 8-week-old female C57BL/6 mice. The mice were separated into 3 groups at 8-weeks old. One of the groups were injected intravenously with normal saline to be used as normal controls, where the pathological control group and the GN disease treatment group by the cinnamaldehyde derivative of the invention were intraperitoneally injected with […] Salmonella LPS (Sigma, USA) (Am J Physiol Renal Physiol, 296: F1088-1099, 2009; Nephron, 84: 167-176, 2000; Nephron Exp Nephrol, 112: e81-91, 2009) twice a week, continuously for 7 weeks for disease induction. Starting two days before disease induction, the GN disease treatment group was intraperitoneally injected with the cinnamaldehyde derivative of the invention at a daily dose of 30 mg/ml for continuous 7 weeks, while the pathological control group was given placebo daily through intraperitoneal injection. Urine samples were collected in metabolic cages every week. Mice were sacrificed on 7th week after the disease induction. Blood, kidneys, spleen and liver were collected and stored properly for further analysis.
Serum blood urea nitrogen (BUN) and proteinuria were used to assess mice kidney function. Serum blood urea nitrogen (BUN) measurement of serum collected through the eye socket was done through a tester (Fuji DRI-CHEM 3000) with a test specimen (Fuju DRI-CHEM SLIDE). […]

[2] = tested on: caspase-1; experiment: Real-time PCR of kidney tissue, caspase-1; format: in vivo, mouse; conditions: LPS induced GN mice, i.p. daily 30 mg/ml, 7 weeks, FIG. 5(A)-(D)
Method: as §1
(§2) RNA was extracted from kidney tissues, reverse transcribed to cDNA and Real-Time PCR (Applied Biosystems) was carried out. Items determined include: IL-6, NLRP3, caspase-1, IL-1β and IL-18, where GAPDH gene expression levels were used to carry out the internal correction.

[3] = tested on: IL-1β; experiment: Real-time PCR of kidney tissue, IL-1β; format: in vivo, mouse; conditions: LPS induced GN mice, i.p. daily 30 mg/ml, 7 weeks, FIG. 5(A)-(D)
Method: as §1, §2

[4] = tested on: TLR4; experiment: Reverse-transcription PCR, TLR4 mRNA; format: in vivo, mouse; conditions: LPS induced GN mice, i.p. daily 30 mg/ml, 7 weeks, semi-quantitated, FIG. 6
Method: as §1
(§3) Reverse-transcription PCR was used to evaluate and semi-quantitate TLR4 and its following adaptin Myd88 mRNA expression. […]

[5] = tested on: NF-κB; experiment: Immunohistochemistry of kidney, NF-κB expression; format: in vivo, mouse; conditions: LPS induced GN mice; i.p. daily 30 mg/ml, 7 weeks; IHC; FIG. 4(A),(B)
Method: as §1
(§4) In addition, to carry out immunohistochemistry (IHC) analysis, tissue fixation, paraffin-embedding, sectioning, rehydration and antigen retrieval were done with routine procedures, and 3% H2O2 was used to remove endogenous peroxidase. […]

[6] = tested on: MyD88; experiment: Reverse-transcription PCR, MyD88 mRNA; format: in vivo, mouse; conditions: LPS induced GN mice, i.p. daily 30 mg/ml, 7 weeks, semi-quantitated, FIG. 6
Method: as §1, §3

[7] = tested on: glomeruli of GN mice; experiment: Renal histopathology (H&E) in LPS induced mouse GN model; format: in vivo; conditions: i.p. daily 30 mg/ml, 7 weeks, FIG. 2
Method: as §1
To evaluate the renal histological changes, 10% formalin was used to fix the tissues, and sections were prepared and stained with hematoxylin and eosin (H&E) and observed under microscope. Changes in the tissues were analyzed by semi-quantitation. Items evaluated include: (1) cell density changes in glomerulus; (2) glomerulus fibrosis; (3) cell necrosis in glomerulus; (4) formation of crescent of glomerulonephritis. According to the ratio of glomeruli having pathological changes, 0 to 4 points were given as scores. 25 glomeruli were measured for each group and the sum of the points represents the renal histological changes. Secondly, mesenchymal and renal tubular atrophy, erythrocyte and protein granule sedimentation in renal tubules and mesenchymal inflammation were also evaluated.

[8] = tested on: caspase-1; experiment: Western blot of renal cortical proteins, caspase-1; format: in vivo, mouse; conditions: LPS induced GN mice, i.p. daily 30 mg/ml, 7 weeks
Method: as §1
Renal cortical tissues were cut to pieces and placed in buffer, and grinding with sonication was used to lyse the cells. After centrifugation, the supernatant was preserved, and protein concentration was measured with protein concentration analyzing kit (BCA protein Assay Kit, PIERCE). […]

[9] = tested on: IL-6; experiment: IL-6 protein in kidney tissue (ELISA); format: in vivo, mouse; conditions: LPS induced GN mice, i.p. daily 30 mg/ml, 7 weeks, FIG. 4(D)
Method: as §1
(§5) ELISA reader (Bio-Tek, USA) was used to detect OD 450 nm absorption and the values were converted to sample concentration according to the standard curve.

[10] = tested on: NF-κB p65; experiment: NF-κB p65 activity in kidney tissues (ELISA); format: in vivo, mouse; conditions: LPS induced GN mice, i.p. daily 30 mg/ml, 7 weeks, FIG. 4(C)
Method: as §1, with “Blood, kidneys, spleen and liver were collected and stored properly for further analysis.” left out
Renal cortical tissues were taken and extracted for nuclear protein with nucleus extraction kit (Active Motif, Japan), and nuclear proteins were taken to detect NF-κB p65 activity after protein quantitation. […] Lastly, ELISA reader (Bio-Tek, USA) was used to detect OD 450 nm absorption and the values were converted to sample concentration according to the standard curve.

[11] = tested on: IL-1β; experiment: Mature IL-1β in renal cortical protein (ELISA); format: in vivo, mouse; conditions: LPS induced GN mice, i.p. daily 30 mg/ml, 7 weeks, FIG. 5(H)
Method: as §1, §5

[12] = tested on: spleen cells; experiment: Flow cytometry of T cell and B cell activation in spleen cells; format: in vivo, mouse; conditions: LPS induced GN mice, i.p. daily 30 mg/ml, 7 weeks
Method: as §1
Mice spleens were taken out, grinded, rinsed and centrifuged to obtain spleen cells. To carry out mice inflammation reaction analysis, 1×10^6 cells were taken and reacted with anti-mouse CD3-FITC antibody, anti-mouse […] antibody anti-mouse CD8-PE, anti-mouse CD19-FITC antibody and anti-mouse CD69-PE antibody (all purchased from BD Pharmingen, CA) respectively in the dark under room temperature for 30 minutes, and analyzed with flow cytometry (Beckton Dickinson, Calif.).

[13] = tested on: T cell (CD3); experiment: Immunohistochemistry of kidney, T cell (CD3) infiltration; format: in vivo, mouse; conditions: LPS induced GN mice; i.p. daily 30 mg/ml, 7 weeks; IHC; FIG. 3(A),(B),(C)
Method: as §1, §4

[14] = tested on: macrophage (F4/80); experiment: Immunohistochemistry of kidney, macrophage marker F4/80; format: in vivo, mouse; conditions: LPS induced GN mice; i.p. daily 30 mg/ml, 7 weeks; IHC; vs GN disease group; FIG. 3(A),(D),(E)
Method: as §1, §4

[15] = tested on: IL-18; experiment: Real-time PCR of kidney tissue, IL-18; format: in vivo, mouse; conditions: LPS induced GN mice, i.p. daily 30 mg/ml, 7 weeks, FIG. 5(A)-(D)
Method: as §1, §2

[16] = Drug safety by weekly weight change of mice; format: in vivo, mouse; conditions: LPS induced GN mice, i.p. daily 30 mg/ml, 7 weeks; for weight change of mice: recorded each week, compared to normal control group, FIG. 7
Method: as §1
During the experiment processes, the drug safety of the cinnamaldehyde derivative was assessed through recording the weight change of mice each week.

[17] = tested on: NLRP3; experiment: Real-time PCR of kidney tissue, NLRP3; format: in vivo, mouse; conditions: LPS induced GN mice, i.p. daily 30 mg/ml, 7 weeks, FIG. 5(A)-(D)
Method: as §1, §2

SMILES: O=CC=Cc1ccc(OC2OC(CO)C(O)C(O)C2O)cc1 (centres unmarked) [cinnamaldehyde derivative, 4-hydroxyphenylacrylaldehyde glycoside]
- serum blood urea nitrogen (BUN) ([1]; i.p. daily 30 mg/ml for 7 weeks, vs pathological control group, FIG. 1(B)): significantly lower
- urine protein content (proteinuria) ([1]; i.p. daily dose of 30 mg/ml for 7 weeks, vs disease group, *p<0.05, FIG. 1(A)): reduce proteinuria
- caspase-1 gene expression level in kidney tissue [2]: significantly reduced
- IL-1β gene expression level in kidney tissue [3]: significantly reduced
- TLR4 mRNA expression level [4]: reduced
- NF-κB expression in kidney tissue [5]: reduce its expression level
- MyD88 mRNA expression level [6]: reduced
- glomerular fibrosis [7]: no fibrosis condition occurrence was observed
- glomerular proliferation [7]: significantly ameliorated
- lymphocyte infiltration [7]: reduced
- matured caspase-1 expression level ([8]; FIG. 5(E)): higher in the disease group than in the cinnamaldehyde derivative treatment group
- pro-caspase-1 expression level ([8]; FIG. 5(E)-(G)): reduced
- IL-6 protein expression level in kidney tissue [9]: reduce IL-6 expression
- NF-κB p65 content (activation) in renal cortical proteins [10]: lower its activation level
- amount of mature IL-1β [11]: significantly decreased
- amount of mature IL-1β ([11]; listed as hydroxycinammaldehde glycoside derivate): significantly increased in GN disease group compared to hydroxycinammaldehde glycoside derivate treated GN group
- Helper T cells (CD4+) activation ratio in spleen cells ([12]; ***p<0.005, FIG. 3(G)): significantly ameliorated
- T cell (CD3+) activation in spleen cells ([12]; FIG. 3(F)): showed the tendency of reduction
- B cell (CD19+) activation in spleen cells ([12]; FIG. 3(H)): no significant difference
- T lymphocyte (CD3) infiltration in glomeruli [13]: significantly lowered
- macrophage (F4/80) staining in kidney [14]: significantly less
- IL-18 gene expression level in kidney tissue [15]: significantly reduced
- side-effects in animals ([16]; judged from weight change): did not cause obvious side-effects
- weight change of mice ([16]; listed as hydroxycinammaldehde glycoside derivative): does not result in weight loss
- weight change of mice ([16]; listed as hydroxycinnamaldehyde derivative): stable increase in their bodyweight
- NLRP3 gene expression level in kidney tissue [17]: significantly reduced
